“Also recorded” adds a separate entry of the source.
Experiments:
Keap1 [1] = test: Superfusion of the hippocampus, Keap1 levels; parameters: species or system Sprague-Dawley rats; conditions: perfused hippocampi of DF and control rats; 7,8-DHF 10 μM, 1 h
Protocol: (§1) Hippocampi were homogenized in ice-cold buffer A (10 mM Hepes, 150 mM NaCl, 1 mM EDTA, protease inhibitor cocktail [5 μl/ml] and phosphatase inhibitor cocktail [10 μl/ml]) and Nonidet P-40 (0.5%) was then added. After 10 min on ice, homogenates were centrifuged (1,200×g, 10 min, 4° C.). Supernatants were saved as the cytoplasmic fraction. Pellets were washed in ice-cold buffer A and sedimented by centrifugation at 1,200×g for 10 min at 4° C. Nuclear yield and integrity were checked by Giemsa staining and microscopy. Nuclei were resuspended in ice-cold buffer B (20 mM Hepes, 420 mM NaCl, 1.2 mM MgCl2, 0.2 mM EDTA, 25% glycerol, 0.5 mM DTT, protease inhibitor cocktail [5 μl/ml] and phosphatase inhibitor cocktail [10 μl/ml]). Samples were sonicated (15 s, 4° C.) and vortexed every 5 min for 20 min. The cytoplasmic and nuclear fractions were centrifuged at 20,000×g, for 30 min at 4° C. Supernatants were rapidly frozen in liquid nitrogen and stored at −80° C. […]
(§2) 40 μg of nuclear or cytosolic protein (or 20 μg for cell experiments) was resolved by SDS-polyacrylamide gel electrophoresis in a 12% polyacrylamide gel. […] Protein bands were quantified with Odyssey® software (version 3.0, LI-COR Biosciences). […] Images were acquired with a digital camera-based imaging system (ChemiDoc, Biorad) and analyzed with Quantity One software (Bio-Rad). […]

[2] = intracerebroventricular administration; cited from earlier work
Nrf2 [3] = test: Nrf2 translocation in hippocampal HT22 cells; format: cell-based; conditions: 30 min, quercetin 10 μM; for nuclear Nrf2 translocation: BDNF 100 ng/ml, 7,8-DHF 10 μM
Protocol: (§3) Hippocampi were homogenized in ice-cold buffer A (10 mM Hepes, 150 mM NaCl, 1 mM EDTA, protease inhibitor cocktail [5 μl/ml] and phosphatase inhibitor cocktail [10 μl/ml]) and Nonidet P-40 (0.5%) was then added. After 10 min on ice, homogenates were centrifuged (1,200×g, 10 min, 4° C.). Supernatants were saved as the cytoplasmic fraction. Pellets were washed in ice-cold buffer A and sedimented by centrifugation at 1,200×g for 10 min at 4° C. Nuclear yield and integrity were checked by Giemsa staining and microscopy. Nuclei were resuspended in ice-cold buffer B (20 mM Hepes, 420 mM NaCl, 1.2 mM MgCl2, 0.2 mM EDTA, 25% glycerol, 0.5 mM DTT, protease inhibitor cocktail [5 μl/ml] and phosphatase inhibitor cocktail [10 μl/ml]). Samples were sonicated (15 s, 4° C.) and vortexed every 5 min for 20 min. The cytoplasmic and nuclear fractions were centrifuged at 20,000×g, for 30 min at 4° C. Supernatants were rapidly frozen in liquid nitrogen and stored at −80° C. A similar protocol was used for cell nuclear and cytosolic extracts.
40 μg of nuclear or cytosolic protein (or 20 μg for cell experiments) was resolved by SDS-polyacrylamide gel electrophoresis in a 12% polyacrylamide gel. The bands were transferred to nitrocellulose or PVDF membranes (Invitrogen, France) for immunoblotting according to standard procedures. We used the following antibody dilutions: 1:250 for rabbit polyclonal antibodies against Nrf2 (Santa Cruz Biotechnology, France), 1:500 for rabbit polyclonal antibodies against Keap1 (Santa Cruz Biotechnology) and 1:5000 for rabbit polyclonal antibodies against aconitase 2 (Gene Tex, France). A dilution of 1:10,000 was used for the fluorescent IRDye® 800CW secondary antibody (ScienceTec, Paris, France). Membranes were also probed with a mouse monoclonal antibody against GAPDH or a mouse monoclonal antibody against beta-actin (dilutions of 1:10,000 and 1:1,000, respectively, Sigma-Aldrich, France) and with the IRDye® 680CW secondary antibody from ScienceTec (1:10,000), to correct for protein loading. Images were acquired with the Odyssey® infrared imaging system (LI-COR Biosciences). Protein bands were quantified with Odyssey® software (version 3.0, LI-COR Biosciences). For SOD1, Prx2 and PrxSO2/SO3 analysis, we used the following antibody dilutions: 1:1000 for rabbit polyclonal antibodies against SOD (Euromedex), 1:2000 for rabbit polyclonal antibodies against PeroxiredoxinSO2/SO3 (Abcam), 1:1000 for rabbit polyclonal antibodies against Peroxiredoxin2 (Abcam). Horseradish peroxidase-conjugated secondary antibodies were used and membranes were developed with the ECL Plus detection reagent (Pierce, Rockford, Ill.). Images were acquired with a digital camera-based imaging system (ChemiDoc, Biorad) and analyzed with Quantity One software (Bio-Rad). […]

Nrf2 [4] = test: Superfusion of the hippocampus, Nrf2 levels; parameters: species or system Sprague-Dawley rats; conditions: 7,8-DHF 10 μM, 1 h; for cytosolic Nrf2 concentration: perfused hippocampi
Protocol: as §3
40 μg of nuclear or cytosolic protein (or 20 μg for cell experiments) was resolved by SDS-polyacrylamide gel electrophoresis in a 12% polyacrylamide gel. The bands were transferred to nitrocellulose or PVDF membranes (Invitrogen, France) for immunoblotting according to standard procedures. We used the following antibody dilutions: 1:250 for rabbit polyclonal antibodies against Nrf2 (Santa Cruz Biotechnology, France), 1:500 for rabbit polyclonal antibodies against Keap1 (Santa Cruz Biotechnology) and 1:5000 for rabbit polyclonal antibodies against aconitase 2 (Gene Tex, France). A dilution of 1:10,000 was used for the fluorescent IRDye® 800CW secondary antibody (ScienceTec, Paris, France). […] Protein bands were quantified with Odyssey® software (version 3.0, LI-COR Biosciences). […] Images were acquired with a digital camera-based imaging system (ChemiDoc, Biorad) and analyzed with Quantity One software (Bio-Rad). […]

Keap1 [5] = test: Keap1 levels in hippocampal HT22 cells; format: cell-based; conditions: 30 min, BDNF 100 ng/ml or 7,8-DHF 10 μM
Protocol: as §1, §2

[6] = tested on: patients suffering of bipolar depression; conditions: cited from earlier work

O=c1cc(-c2ccccc2)oc2c(O)c(O)ccc12 [7,8-DHF, 7,8-dihydroxyflavone]
Keap1 concentration (Keap1 [1]): no change in Keap1 concentration
neuroanatomical alterations (hippocampal CA3 dendritic retraction, increase of amygdala dendritic length) [2]: can prevent neuroanatomical alterations
occurrence of depressive profile [2]: prevent
nuclear Nrf2 translocation (Nrf2 [3]): induced a marked increase; also recorded: produced similar effects on Nrf2
nuclear Nrf2 translocation (Nrf2 [4]; perfused hippocampi of defeated (DF, D5) and control rats): induced a marked translocation of Nrf2 to the nuclear compartment; also recorded: induced Nrf2 translocation to the nucleus to the same level in defeated and control animals
cytosolic Nrf2 concentration (Nrf2 [4]; DF animals (D5)): induced a decrease in cytosolic Nrf2 concentration; also recorded: decrease in cytosolic Nrf2 levels
cytosolic Nrf2 concentration (Nrf2 [4]; control (C) animals): tendency for this concentration to decrease
Keap1 levels (Keap1 [5]): not affected

CC(=O)N[C@@H](CS)C(=O)O [N-acetylcysteine (NAC), N-acetylcysteine]
depression scores [6]: induced a robust decrement in depression scores

O=c1c(O)c(-c2ccc(O)c(O)c2)oc2cc(O)cc(O)c12 [quercetin]
nuclear Nrf2 translocation (Nrf2 [3]): induces a translocation of Nrf2 to the nucleus
Nrf2 cytosolic fraction (Nrf2 [3]): decreased

B1: BDNF: brain derived neurotrophic factor, added to HT22 cell medium at 100 ng/ml (protein, UniProt P23560 19-247, looked up)
Neurotrophic factor BDNF …: APMKEANIRGQGGLAYPGVRTHGTLESVNGPKAGSRGLTSLADTFEHVIEELLDEDQKVRPNEENNKDADLYTSRVMLSSQVPLEPPLLFLLEEYKNYLDAANMSMRVRRHSDPARRGELSVCDSISEWVTAADKKTAVDMSGGTVTVLEKVPVSKGQLKQYFYETKCNPMGYTKEGCRGIDKRHWNSQCRTTQSYVRALTMDSKKRIGWRFIRIDTSCVCTLTIKRGR
nuclear Nrf2 translocation (Nrf2 [3]): induced a marked increase; also recorded: produced similar effects on Nrf2
Keap1 levels (Keap1 [5]): not affected

From patent publication US20190060298A1, “NEW DRUG FOR THE TREATMENT AND/OR PREVENTION OF DEPRESSIVE DISORDERS” (SORBONNE UNIVERSITE, priority 2013, published 2019)
